The source made the active and inactive calls. The rule behind the calls is not given here.
Key:
Mus musculus [1] = test: Antidiabetic activity in BALB/c mouse type 2 diabetic model assessed as reduction of fasting blood glucose level at 200 mg/kg, po QD measured after 2 weeks by glucometry (Rvb=14.86 +/- 1.58 mmol/L); format: functional
Mus musculus [2] = test: Hypoglycemic effect in type 2 diabetic BALB/c mouse model assessed as reduction in blood glucose excursion at 100 to 200 mg/kg, po pretreated 60 mins before glucose challenge measured up to 3 hrs by one-touch glucometer relative to diabetic control; format: functional, organism-based
Mus musculus [3] = test: Antidiabetic activity in BALB/c mouse type 2 diabetic model assessed as reduction of fasting blood glucose level at 100 mg/kg, po QD measured after 1 week by glucometry (Rvb=14.89 +/- 1.37 mmol/L); format: functional
Mus musculus [4] = test: Antidiabetic activity in BALB/c mouse type 2 diabetic model assessed as reduction of fasting blood glucose level at 100 mg/kg, po QD measured after 3 weeks by glucometry (Rvb=14.89 +/- 1.42 mmol/L); format: functional
Mus musculus [5] = test: Antidiabetic activity in BALB/c mouse type 2 diabetic model assessed as reduction of fasting blood glucose level at 200 mg/kg, po QD measured after 1 week by glucometry (Rvb=14.89 +/- 1.37 mmol/L); format: functional
Mus musculus [6] = test: Antidiabetic activity in BALB/c mouse type 2 diabetic model assessed as reduction of fasting blood glucose level at 100 mg/kg, po QD measured after 2 weeks by glucometry (Rvb=14.86 +/- 1.58 mmol/L); format: functional
Mus musculus [7] = test: Antidiabetic activity in BALB/c mouse type 2 diabetic model assessed as reduction of fasting blood glucose level at 200 mg/kg, po QD measured after 3 weeks by glucometry (Rvb=14.89 +/- 1.42 mmol/L); format: functional
Mus musculus [8] = test: Antidiabetic activity in BALB/c mouse type 2 diabetic model assessed as reduction of fasting blood glucose level at 100 mg/kg, po QD measured after 4 weeks by glucometry (Rvb=15.03 +/- 1.47 mmol/L); format: functional
Mus musculus [9] = test: Antidiabetic activity in BALB/c mouse type 2 diabetic model assessed as reduction of fasting blood glucose level at 200 mg/kg, po QD measured after 4 weeks by glucometry (Rvb=15.03 +/- 1.47 mmol/L); format: functional
Mus musculus [10] = test: Hypoglycemic effect in type 2 diabetic BALB/c mouse model assessed as reduction in blood glucose excursion at 2 mg/kg, po pretreated 60 mins before glucose challenge measured up to 3 hrs by one-touch glucometer relative to diabetic control; format: functional, organism-based; parameters: dose 2 mg/kg
Mus musculus [11] = test: Antidiabetic activity in BALB/c mouse type 2 diabetic model assessed as reduction of fasting blood glucose level at 2 mg/kg, po QD measured after 3 weeks by glucometry (Rvb=14.89 +/- 1.42 mmol/L); format: functional
Mus musculus [12] = test: Antidiabetic activity in BALB/c mouse type 2 diabetic model assessed as reduction of fasting blood glucose level at 2 mg/kg, po QD measured after 2 weeks by glucometry (Rvb=14.86 +/- 1.58 mmol/L); format: functional
Mus musculus [13] = test: Antidiabetic activity in BALB/c mouse type 2 diabetic model assessed as reduction of fasting blood glucose level at 2 mg/kg, po QD measured after 4 weeks by glucometry (Rvb=15.03 +/- 1.47 mmol/L); format: functional
Mus musculus [14] = test: Antidiabetic activity in BALB/c mouse type 2 diabetic model assessed as reduction of fasting blood glucose level at 2 mg/kg, po QD measured after 1 week by glucometry (Rvb=14.89 +/- 1.37 mmol/L); format: functional

| SMILES | Activity (Mus musculus [1]) | Activity (Mus musculus [2]) | Activity (Mus musculus [3]) | Activity (Mus musculus [4]) | Activity (Mus musculus [5]) | Activity (Mus musculus [6]) | Activity (Mus musculus [7]) | Activity (Mus musculus [8]) | Activity (Mus musculus [9]) | Activity (Mus musculus [10]) | Activity (Mus musculus [11]) | Activity (Mus musculus [12]) | Activity (Mus musculus [13]) | Activity (Mus musculus [14]) |
| --- | --- | --- | --- | --- | --- | --- | --- | --- | --- | --- | --- | --- | --- | --- |
| OC[C@H]1O[C@@](CO)(OC[C@H]2O[C@@](CO[C@]3(CO[C@]4(CO)O[C@H](CO)[C@@H](O)[C@@H]4O)O[C@H](CO)[C@@H](O)[C@@H]3O)(OC[C@@]3(OC[C@@]4(OC[C@@]5(OC[C@@]6(OC[C@@]7(OC[C@@]8(OC[C@@]9(OC[C@@]%10(OC[C@@]%11(OC[C@@]%12(OC[C@@]%13(OC[C@@]%14(OC[C@@]%15(OC[C@@]%16(OC[C@@]%17(OC[C@@]%18(O[C@@H]%19O[C@H](CO)[C@@H](O)[C@H](O)[C@H]%19O)O[C@H](CO)[C@@H](O)[C@@H]%18O)O[C@H](CO[C@]%18(CO)O[C@H](CO)[C@@H](O)[C@@H]%18O)[C@@H](O)[C@@H]%17O)O[C@H](CO)[C@@H](O)[C@@H]%16O)O[C@H](CO)[C@@H](O)[C@@H]%15O)O[C@H](CO[C@]%15(CO)O[C@H](CO)[C@@H](O)[C@@H]%15O)[C@@H](O)[C@@H]%14O)O[C@H](CO)[C@@H](O)[C@@H]%13O)O[C@H](CO)[C@@H](O)[C@@H]%12O)O[C@H](CO[C@]%12(CO)O[C@H](CO)[C@@H](O)[C@@H]%12O)[C@@H](O)[C@@H]%11O)O[C@H](CO)[C@@H](O)[C@@H]%10O)O[C@H](CO)[C@@H](O)[C@@H]9O)O[C@H](CO[C@]9(CO)O[C@H](CO)[C@@H](O)[C@@H]9O)[C@@H](O)[C@@H]8O)O[C@H](CO)[C@@H](O)[C@@H]7O)O[C@H](CO)[C@@H](O)[C@@H]6O)O[C@H](CO[C@]6(CO)O[C@H](CO)[C@@H](O)[C@@H]6O)[C@@H](O)[C@@H]5O)O[C@H](CO)[C@@H](O)[C@@H]4O)O[C@H](CO)[C@@H](O)[C@@H]3O)[C@@H](O)[C@@H]2O)[C@@H](O)[C@@H]1O | 6.16 mmol/L | Active | 10.04 mmol/L | 4.7 mmol/L | 8.65 mmol/L | 7.05 mmol/L | 5.14 mmol/L | 4.63 mmol/L | 4.78 mmol/L | Active | – | – | – | – |
| CN(CCOc1ccc(CC2SC(=O)NC2=O)cc1)c1ccccn1 (stereo unspecified) [ROSIGLITAZONE] | – | Active | – | – | – | – | – | – | – | Active | 5.04 mmol/L | 5.54 mmol/L | 4.94 mmol/L | 9.58 mmol/L |
| OC[C@H]1OC(CO)(OC[C@H]2O[C@@](CO[C@]3(CO[C@]4(CO[C@]5(CO[C@]6(CO[C@]7(CO)O[C@H](CO)[C@@H](O)[C@@H]7O)O[C@H](CO[C@]7(CO)O[C@H](CO)[C@@H](O)[C@@H]7O)[C@@H](O)[C@@H]6O)O[C@H](CO)[C@@H](O)[C@@H]5O)O[C@H](CO[C@]5(CO)O[C@H](CO)[C@@H](O)[C@@H]5O)[C@@H](O)[C@@H]4O)O[C@H](CO)[C@@H](O)[C@@H]3O)(OC[C@@]3(OC[C@@]4(OC[C@@]5(OC[C@@]6(OC[C@@]7(OC[C@@]8(OC[C@@]9(O[C@@H]%10O[C@H](CO)[C@@H](O)[C@H](O)[C@H]%10O)O[C@H](CO)[C@@H](O)[C@@H]9O)O[C@H](CO[C@]9(CO)O[C@H](CO)[C@@H](O)[C@@H]9O)[C@@H](O)[C@@H]8O)O[C@H](CO)[C@@H](O)[C@@H]7O)O[C@H](CO[C@]7(CO)O[C@H](CO)[C@@H](O)[C@@H]7O)[C@@H](O)[C@@H]6O)O[C@H](CO)[C@@H](O)[C@@H]5O)O[C@H](CO[C@]5(CO)O[C@H](CO)[C@@H](O)[C@@H]5O)[C@@H](O)[C@@H]4O)O[C@H](CO)[C@@H](O)[C@@H]3O)[C@@H](O)[C@@H]2O)[C@@H](O)[C@@H]1O (stereo partly specified) | 7.25 mmol/L | Active | 9.71 mmol/L | 4.83 mmol/L | 9.35 mmol/L | 7.96 mmol/L | 5.44 mmol/L | 5.13 mmol/L | 4.83 mmol/L | Active | – | – | – | – |
